We go through 20 compounds from patent publication US10941152B2, “Pyrazole compounds as modulators of FSHR and uses thereof” (TOCOPHERX, INC., priority 2014, dated 2021).

Where only a bound is given, the exact number is not on record here.

In one assay the target is T1, FSHR (Homo sapiens, UniProt P23945).
T1 construct: expressed in transfected cells; host or cells: CHO (Cho-FSHR-LUC-1-1-43)
T1 sequence (P23945 18-695): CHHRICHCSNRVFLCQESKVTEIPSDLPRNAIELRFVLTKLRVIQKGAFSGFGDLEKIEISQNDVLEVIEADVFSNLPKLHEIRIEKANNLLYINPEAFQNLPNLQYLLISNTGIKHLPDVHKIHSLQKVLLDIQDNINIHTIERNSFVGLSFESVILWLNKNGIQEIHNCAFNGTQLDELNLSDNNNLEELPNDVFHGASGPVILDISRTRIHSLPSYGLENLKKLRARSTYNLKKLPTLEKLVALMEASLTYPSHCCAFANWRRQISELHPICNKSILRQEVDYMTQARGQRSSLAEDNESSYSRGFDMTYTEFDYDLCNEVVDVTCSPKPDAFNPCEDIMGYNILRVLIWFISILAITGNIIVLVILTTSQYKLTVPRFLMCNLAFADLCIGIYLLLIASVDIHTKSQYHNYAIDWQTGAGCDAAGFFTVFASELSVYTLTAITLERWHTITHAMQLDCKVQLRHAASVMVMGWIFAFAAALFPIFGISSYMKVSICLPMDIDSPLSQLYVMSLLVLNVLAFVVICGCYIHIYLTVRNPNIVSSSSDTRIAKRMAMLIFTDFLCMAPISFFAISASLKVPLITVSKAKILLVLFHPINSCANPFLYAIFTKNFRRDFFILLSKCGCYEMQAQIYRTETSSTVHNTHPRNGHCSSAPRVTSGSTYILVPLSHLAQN
Kind of assay: EC50 of cyclic AMP production in CHO FSHR cells + EC20 FSH (Assay A). To be noted: cyclic AMP production in CHO FSHR cells + EC20 FSH (0.265 pM), HTRF. It counts as cell-based. The procedure, abridged:
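CHO cells expressing FSHR, stimulated 1 h at 37° C with compound plus EC20 FSH (0.265 pM final) and 200 μM IBMX. cAMP measured by HTRF (665/620 nm ratio) after 1 h at room temperature; effect expressed relative to maximum response of FSH standard.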

Assay [1] has as its target T2, follicle-stimulating hormone (FSH) receptor (Rattus norvegicus, UniProt P20395).
T2 construct: endogenous in cells; host or cells: rat granulosa cells
T2 sequence (P20395 18-692): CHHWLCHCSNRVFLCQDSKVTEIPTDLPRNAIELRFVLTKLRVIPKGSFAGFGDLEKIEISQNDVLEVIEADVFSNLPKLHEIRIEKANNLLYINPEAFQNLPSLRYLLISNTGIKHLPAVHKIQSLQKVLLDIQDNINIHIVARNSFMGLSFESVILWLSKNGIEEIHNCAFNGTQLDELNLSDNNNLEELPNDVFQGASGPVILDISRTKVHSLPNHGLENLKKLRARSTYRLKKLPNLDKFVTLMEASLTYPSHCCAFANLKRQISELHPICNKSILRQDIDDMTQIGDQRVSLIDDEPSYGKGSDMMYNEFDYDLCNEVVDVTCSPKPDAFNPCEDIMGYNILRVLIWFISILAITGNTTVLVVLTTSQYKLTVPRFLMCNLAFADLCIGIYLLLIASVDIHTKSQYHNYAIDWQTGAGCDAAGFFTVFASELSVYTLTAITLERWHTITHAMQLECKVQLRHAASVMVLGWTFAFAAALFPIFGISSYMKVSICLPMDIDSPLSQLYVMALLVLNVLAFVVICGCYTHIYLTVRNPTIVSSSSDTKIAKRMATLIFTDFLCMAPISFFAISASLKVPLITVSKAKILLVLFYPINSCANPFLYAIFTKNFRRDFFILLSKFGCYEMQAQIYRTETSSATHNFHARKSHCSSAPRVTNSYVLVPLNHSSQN
Kind of assay: Rat granulosa EC50 FSH (Assay B). In kind it is cell-based. Here is the method:
Example 25. Rat granulosa EC50 FSH (Assay B)
The assay was performed pursuant to the teaching of Yanofsky et al. (2006) Allosteric activation of the follicle-stimulating hormone (FSH) receptor by selective, nonpeptide agonists (JBC 281(19): 13226-13233, which is incorporated by reference in the disclosure of the invention).

As for `COc1cc(OC)cc(-n2nc(C(=O)N(C)C(C)(C)C)c3c2-c2cc(-c4cc[nH]c4)c(OC)cc2OC3)c1` [Compound 38], the values for the EC50 (at FSHR; in assay [1]) were 10 to 100 nM and 101 to 500 nM, respectively.

On to `COc1cc2c(cc1-c1nn(C)cc1C#N)-c1c(c(C(=O)N3CCOCC3(C)C)nn1-c1cc(F)cc(F)c1)CO2` [Compound 150], for which the EC50 is less than 10 nM on FSHR and 10 to 100 nM in assay [1].

With `COc1cc2c(cc1-c1cnn(CCO)c1)-c1c(c(C(=O)N3CCOCC3(C)C)nn1-c1cc(F)cc(Cl)c1)CO2` [Compound 78, (1-(3-chloro-5-fluorophenyl)-8-(1-(2-hydroxyethyl)-1H-pyrazol-4-yl)-7-methoxy-1,4-dihydrochromeno[4,3-c]pyrazol-3-yl)(3,3-dimethylmorpholino)methanone], the EC50 at FSHR is less than 10 nM; in assay [1], 10 to 100 nM.

In the case of `COC(=O)c1cc(-c2cc3c(cc2OC)OCc2c(C(=O)N(C)C(C)(C)C)nn(-c4cc(F)cc(F)c4)c2-3)cnc1N` [Compound 65, methyl 2-amino-5-(3-(tert-butyl(methyl)carbamoyl)-1-(3,5-difluorophenyl)-7-methoxy-1,4-dihydrochromeno[4,3-c]pyrazol-8-yl)nicotinate], the values for the EC50 (on FSHR; in assay [1]) were less than 10 nM and 10 to 100 nM, respectively.

Take `COc1cc2c(cc1-c1cnn(CC(=O)O)c1)-c1c(c(C(=O)N(C)C(C)(C)C)nn1-c1cc(F)cc(F)c1)CO2` [Compound 87, 2-(4-(3-(tert-butyl(methyl)carbamoyl)-1-(3,5-difluorophenyl)-7-methoxy-1,4-dihydrochromeno[4,3-c]pyrazol-8-yl)-1H-pyrazol-1-yl)acetic acid]: the EC50 on FSHR was in the range of 10 to 100 nM; in assay [1], 101 to 500 nM.

In the case of `COc1cc(F)cc(-n2nc(C(=O)N(C)C(C)(C)C)c3c2-c2cc(-c4cncc(C(N)=O)c4)c(OC)cc2OC3)c1` [Compound 166], the EC50 was less than 10 nM at FSHR and 101 to 500 nM in assay [1].

As for `COCC1(CC(F)(F)F)CCCN1C(=O)c1nn(-c2ccsc2)c2c1COc1cc(OC)c(-c3ccn(C)n3)cc1-2` (stereo not shown) [Compound 131, (7-methoxy-8-(1-methyl-1H-pyrazol-3-yl)-1-(thiophen-3-yl)-1,4-dihydrochromeno[4,3-c]pyrazol-3-yl)(2-(methoxymethyl)-2-(2,2,2-trifluoroethyl)pyrrolidin-1-yl)methanone], the concentration giving a half-maximal response (EC50) (on FSHR; in assay [1]) was 10 to 100 nM each time.

With `COc1cc2c(cc1-c1cncc(C(N)=O)c1)-c1c(c(C(=O)N(C)C(C)(C)C#N)nn1-c1cc(F)cc(Cl)c1)CO2` [Compound 110, 8-(5-carbamoylpyridin-3-yl)-1-(3-chloro-5-fluorophenyl)-N-(2-cyanopropan-2-yl)-7-methoxy-N-methyl-1,4-dihydrochromeno[4,3-c]pyrazole-3-carboxamide], the EC50 on FSHR is less than 10 nM; in assay [1], 10 to 100 nM.

For the compound `COc1cc(OC)cc(-n2nc(C(=O)N3CC[S+]([O-])CC3(C)C)c3c2-c2cc(-c4ccccn4)c(OC)cc2OC3)c1` (stereo not shown) [Compound 41, (1-(3,5-dimethoxyphenyl)-7-methoxy-8-(pyridin-2-yl)-1,4-dihydrochromeno[4,3-c]pyrazol-3-yl)(S-oxo-3,3-dimethylthiomorpholino)methanone], the EC50 on FSHR was in the range of 10 to 100 nM; in assay [1] it was 101 to 500 nM.

Turning to `COc1cc2c(cc1-c1cc(Cl)cc(C(N)=O)c1)-c1c(c(C(=O)N(C)C(C)(C)C)nn1-c1cc(F)cc(F)c1)CO2` [Compound 165], the figures for the EC50 (on FSHR; in assay [1]) were less than 10 nM and 10 to 100 nM, respectively.

Take `COc1cc2c(cc1C1CC1C(N)=O)-c1c(c(C(=O)N(C)C(C)(C)C)nn1-c1cc(Cl)cc(Cl)c1)CO2` (stereo not shown) [Compound 199]: the figures for the EC50 (on FSHR; in assay [1]) were less than 10 nM and 101 to 500 nM, respectively.

Turning to `COc1cc(Cl)cc(-n2nc(C(=O)N(C)C(C)(C)C)c3c2-c2cc(-c4cnn(CCO)c4)c(OC)cc2OC3)c1` [Compound 79, N-tert-butyl-1-(3-chloro-5-methoxyphenyl)-8-(1-(2-hydroxyethyl)-1H-pyrazol-4-yl)-7-methoxy-N-methyl-1,4-dihydrochromeno[4,3-c]pyrazole-3-carboxamide], the EC50 on FSHR is 10 to 100 nM; in assay [1], 101 to 500 nM.

Turning to `COc1cc2c(cc1-c1ccnc(C#N)c1)-c1c(c(C(=O)N(C)C(C)(C)C)nn1-c1cc(Cl)cc(Cl)c1)CO2` [Compound 21, N-tert-butyl-8-(2-cyanopyridin-4-yl)-1-(3,5-dichlorophenyl)-7-methoxy-N-methyl-1,4-dihydrochromeno[4,3-c]pyrazole-3-carboxamide], the EC50 at FSHR is less than 10 nM; in assay [1], 10 to 100 nM.

Regarding `COc1cc2c(cc1-c1cncc(NC(C)=O)c1)-c1c(c(C(=O)N(C)C(C)(C)C)nn1-c1cc(Cl)cc(Cl)c1)CO2` [Compound 182, 8-(5-acetamidopyridin-3-yl)-N-tert-butyl-1-(3,5-dichlorophenyl)-7-methoxy-N-methyl-1,4-dihydrochromeno[4,3-c]pyrazole-3-carboxamide], the EC50 (at FSHR; in assay [1]) was less than 10 nM throughout.

For `COc1cc2c(cc1-c1cnn(CC(N)=O)c1)-c1c(c(C(=O)N3CC[S+]([O-])CC3(C)C)nn1-c1cc(F)cc(F)c1)CO2` (stereo not shown) [Compound 71], the EC50 at FSHR fell in the range of 10 to 100 nM; in assay [1], 101 to 500 nM.

`COc1cc2c(cc1-c1ncnn1C)-c1c(c(C(=O)N(C)C(C)(C)C)nn1-c1ccsc1)CO2` [Compound 208]: the EC50 at FSHR was 10 to 100 nM; in assay [1], greater than 500 nM.

Regarding `COc1cc(Cl)cc(-n2nc(C(=O)N(C)C(C)(C)C)c3c2-c2cc(-c4cnn(CC(=O)O)c4)c(OC)cc2OC3)c1` [Compound 85, 2-(4-(3-(tert-butyl(methyl)carbamoyl)-1-(3-chloro-5-methoxyphenyl)-7-methoxy-1,4-dihydrochromeno[4,3-c]pyrazol-8-yl)-1H-pyrazol-1-yl)acetic acid], the EC50 at FSHR was 10 to 100 nM; in assay [1], greater than 500 nM.

With `COc1cc2c(cc1-c1ccn(C)n1)-c1c(c(C(=O)N3CCC(O)CC3(C)C)nn1-c1cc(Cl)cc(Cl)c1)CO2` (stereo not shown) [Compound 7, (1-(3,5-dichlorophenyl)-7-methoxy-8-(1-methyl-1H-pyrazol-3-yl)-1,4-dihydrochromeno[4,3-c]pyrazol-3-yl)(4-hydroxy-2,2-dimethylpiperidin-1-yl)methanone], the EC50 lay within 10 to 100 nM at FSHR and 101 to 500 nM in assay [1].

As for `COc1cc2c(cc1-c1cnn(CC(N)=O)c1)-c1c(c(C(=O)N(C)C(C)(C)C)nn1-c1cc(Cl)cc(Cl)c1)CO2` [Compound 2, 8-(1-(2-amino-2-oxoethyl)-1H-pyrazol-4-yl)-N-tert-butyl-1-(3,5-dichlorophenyl)-7-methoxy-N-methyl-1,4-dihydrochromeno[4,3-c]pyrazole-3-carboxamide], the results for the EC50 (at FSHR; in assay [1]) were less than 10 nM and 10 to 100 nM, respectively.

In the case of `COc1cc2c(cc1-c1cccnc1F)-c1c(c(C(=O)N(C)C(C)(C)C)nn1-c1ccsc1)CO2` [Compound 55, N-tert-butyl-8-(2-fluoropyridin-3-yl)-7-methoxy-N-methyl-1-(thiophen-3-yl)-1,4-dihydrochromeno[4,3-c]pyrazole-3-carboxamide], the EC50 on FSHR was less than 10 nM; in assay [1], 10 to 100 nM.
